From PubChem BioAssay (NCI) come the findings set out here.

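In this assay, cells in 96-well plates receive the compound at five concentrations for 48 hours. Endpoints are linearly interpolated between the surrounding concentrations. TGI denotes the concentration required for complete inhibition of growth.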

Some test systems named below: ACHN renal; HCT-15 colon; HT29 colon; IGROV1 ovarian; NCI-H226 lung; NCI-H23 lung; SW-620 colon; UACC-62 melanoma; HOP-62 NSCLC; SF-268 CNS.
Experiment in all cases: inhibition of tumour cell growth, NCI panel, 48 h

With `C1COC(NC(C2CC2)C2CC2)=N1`, the TGI in the assay on ACHN renal, with HCT-15 colon, in the assay on HT29 colon, in the assay on IGROV1 ovarian, in the assay with NCI-H226 lung and in the assay on NCI-H23 lung was over 100 µM in each case. Also, the TGI in the assay on SW-620 colon and with UACC-62 melanoma was over 100 µM throughout.
As for `Cc1nc2c(o1)C(=O)c1ccccc1/C2=N/c1ccccn1`, the TGI came out at 39.8 µM with ACHN renal; 28.4 µM in the assay with HCT-15 colon; 37.8 µM in the assay on HOP-62 NSCLC; 41.3 µM in the assay on HT29 colon; 51.4 µM with IGROV1 ovarian; 23.6 µM in the assay on NCI-H23 lung. Moreover, the TGI with SF-268 CNS came out at 68.9 µM; in the assay with SW-620 colon, 31.6 µM; with UACC-62 melanoma, 34.9 µM.
In the case of `O=C1c2ccccc2CC12Cc1cc3c(cc1C2=O)CCC3` (configuration not stated), the TGI in the assay on ACHN renal, in the assay on HCT-15 colon, in the assay on HOP-62 NSCLC, in the assay on HT29 colon, with IGROV1 ovarian and in the assay on NCI-H23 lung was over 100 µM throughout. Besides, the TGI in the assay with SF-268 CNS and in the assay on SW-620 colon was over 100 µM throughout.
As to `CC1(O)CC2C(CC1SCCO)C2(C)C` (configuration not stated), the TGI with ACHN renal, in the assay on HCT-15 colon, in the assay on HT29 colon, with IGROV1 ovarian, in the assay on NCI-H23 lung and in the assay with SF-268 CNS was over 100 µM each time.
Consider `COC(=O)CC1(CNC(=O)OCc2ccccc2)OCCO1`, for which the TGI in the assay on ACHN renal, with HCT-15 colon, in the assay on IGROV1 ovarian, with NCI-H226 lung, in the assay with NCI-H23 lung and with SW-620 colon was over 100 µM each time. The TGI with UACC-62 melanoma was over 100 µM.
Take `CCOc1ccc2c(c1)/C(=C(\C(Cl)=C(Cl)Cl)[N+](=O)[O-])N2`: the TGI with ACHN renal, in the assay on HCT-15 colon, with HOP-62 NSCLC, with HT29 colon, in the assay on NCI-H226 lung and in the assay on NCI-H23 lung was over 100 µM throughout. Besides, the TGI with SF-268 CNS, with SW-620 colon and with UACC-62 melanoma was over 100 µM in each case.
As to `Cc1cccc(Nc2cn(COCc3ccccc3)c(=O)[nH]c2=O)c1`, the TGI was over 100 µM in the assay with ACHN renal; over 100 µM with HCT-15 colon; 86.3 µM in the assay with HOP-62 NSCLC; over 100 µM in the assay on HT29 colon; over 100 µM in the assay with IGROV1 ovarian; over 100 µM with NCI-H23 lung. The TGI in the assay with SF-268 CNS, with SW-620 colon and in the assay with UACC-62 melanoma was over 100 µM throughout.
Regarding `CCCNC(=S)N/N=C/c1cccc(C)n1`, the TGI is 44.7 µM with ACHN renal; over 100 µM with HCT-15 colon; over 100 µM with HOP-62 NSCLC; over 100 µM with HT29 colon; over 100 µM in the assay with IGROV1 ovarian; 72.2 µM in the assay with NCI-H226 lung. Further, the TGI in the assay on NCI-H23 lung is over 100 µM; in the assay on UACC-62 melanoma, 57 µM.
`N#Cc1[nH]c(=O)n(-c2ccc(Cl)cc2)c1N`: the TGI in the assay on ACHN renal, with HCT-15 colon, in the assay with HOP-62 NSCLC, in the assay with HT29 colon, in the assay with IGROV1 ovarian and in the assay on NCI-H226 lung was over 10 µM in each case. Further, the TGI with NCI-H23 lung, in the assay with SF-268 CNS and with UACC-62 melanoma was over 10 µM throughout.
As for `COC(=O)NCCc1[nH]nc2c1C(=O)C=C(Nc1ccccc1)C2=O`, the TGI with ACHN renal was over 100 µM; in the assay on HCT-15 colon, over 100 µM; with HOP-62 NSCLC it was over 100 µM; with HT29 colon it was over 100 µM; in the assay on IGROV1 ovarian, 65.2 µM; in the assay on NCI-H23 lung it was 31.4 µM. In addition, the TGI with SF-268 CNS is over 100 µM; with SW-620 colon, over 100 µM; in the assay with UACC-62 melanoma it was 34.8 µM.
On to `O=C(NO)c1coc2ccccc2c1=O`, for which the TGI in the assay on ACHN renal, in the assay with HCT-15 colon, in the assay on HT29 colon, in the assay with IGROV1 ovarian, with NCI-H23 lung and with SF-268 CNS was over 100 µM each time. Also, the TGI in the assay with SW-620 colon and in the assay on UACC-62 melanoma was over 100 µM in each case.
On to `CC(C)(C)[Si](C)(C)OCCCC#CCO`, for which the TGI in the assay with ACHN renal, with HCT-15 colon, in the assay with HT29 colon, in the assay with IGROV1 ovarian, in the assay on NCI-H23 lung and in the assay on SF-268 CNS was over 100 µM each time. Besides, the TGI in the assay with SW-620 colon and in the assay with UACC-62 melanoma was over 100 µM in each case.
As for `CC1CCCC2=C1C(c1ccc(Cl)cc1)n1c(s/c(=C\c3ccc(Cl)cc3)c1=O)=N2` (configuration not stated), the TGI with ACHN renal, in the assay on HCT-15 colon, with HOP-62 NSCLC, in the assay on HT29 colon, with IGROV1 ovarian and with SF-268 CNS was over 100 µM in each case. Moreover, the TGI in the assay with SW-620 colon and in the assay on UACC-62 melanoma was over 100 µM in each case.
With `COC(OC)c1cccc2c1C1(O)CCC3(CC21)OCCCCO3` (configuration not stated), the TGI in the assay on ACHN renal, in the assay on HCT-15 colon, in the assay on HOP-62 NSCLC, with HT29 colon, in the assay with IGROV1 ovarian and with NCI-H226 lung was over 100 µM throughout. Also, the TGI in the assay with NCI-H23 lung, in the assay on SF-268 CNS and in the assay on UACC-62 melanoma was over 100 µM throughout.
With `Cc1ccc(/C=C/C(=O)c2c([O-])on[n+]2-c2ccccc2)cc1`, the TGI was 3.55 µM with ACHN renal; 4.68 µM with HCT-15 colon; 24.9 µM in the assay on HOP-62 NSCLC; 3.84 µM in the assay on HT29 colon; 8.67 µM in the assay on IGROV1 ovarian; over 45.6 µM in the assay with NCI-H226 lung. In addition, the TGI in the assay on NCI-H23 lung is 17.5 µM; in the assay with SF-268 CNS, over 37.5 µM; in the assay on UACC-62 melanoma it was 3.12 µM.
`CC[N+]1(C)CCC(O)(c2ccc(Cl)cc2)C(C(=O)c2ccc(Cl)cc2)C1` (configuration not stated): the TGI in the assay with ACHN renal came out at 33.5 µM; in the assay on HCT-15 colon it was 41.3 µM; in the assay on HOP-62 NSCLC it was 46.8 µM; in the assay with HT29 colon it was 94.4 µM; with IGROV1 ovarian it was 47.9 µM; in the assay on NCI-H226 lung it was 48.3 µM. Further, the values for the TGI in the assay with NCI-H23 lung, in the assay on SF-268 CNS and in the assay on UACC-62 melanoma were 38.5 µM, 58.8 µM and 27.9 µM, respectively.
In the case of `O=C(N/N=C1\CCc2ccccc2C1)N/N=C1\CCc2ccccc2C1`, the TGI in the assay with ACHN renal, with HCT-15 colon, with HOP-62 NSCLC, in the assay with HT29 colon, in the assay with NCI-H226 lung and with NCI-H23 lung was over 10 µM each time. Moreover, the TGI in the assay on SF-268 CNS and in the assay on SW-620 colon was over 10 µM in each case.
As for `O=C(c1cc(Cl)cc(Cl)c1)N(C(=S)OC12CC3CC(CC(C3)C1)C2)c1ccccc1`, the TGI with ACHN renal, with HCT-15 colon, in the assay with HOP-62 NSCLC, with HT29 colon, in the assay with NCI-H226 lung and in the assay on NCI-H23 lung was over 100 µM throughout. The TGI in the assay on SF-268 CNS, in the assay with SW-620 colon and in the assay with UACC-62 melanoma was over 100 µM each time.
With `O=C1c2cc3ccccc3cc2C2(c3ccc(Cl)cc3)N[C@H]3CCCC[C@@H]3N12` (some centres not stated), the TGI in the assay on ACHN renal is 38.7 µM; in the assay on HCT-15 colon, over 100 µM; with HOP-62 NSCLC, 20.3 µM; in the assay with HT29 colon, 53.5 µM; in the assay with IGROV1 ovarian, 30.6 µM; in the assay on NCI-H23 lung, 31.3 µM. The TGI was found to be 39 µM in the assay with SF-268 CNS, 59.3 µM in the assay with SW-620 colon and 35.2 µM in the assay with UACC-62 melanoma.
`COC(=O)C1=Nc2c(C)nn(-c3ccccc3)c2N=C(c2ccc(C)cc2)C1`: the TGI in the assay with ACHN renal, in the assay on HCT-15 colon, in the assay with HOP-62 NSCLC, with HT29 colon, in the assay on IGROV1 ovarian and in the assay with NCI-H23 lung was over 10 µM each time. For the same compound, the TGI in the assay with SF-268 CNS, in the assay with SW-620 colon and in the assay with UACC-62 melanoma was over 10 µM in each case.
Turning to `C=C(C=O)c1c2c(nc3ccccc13)C(=O)c1ccccc1C2=O`, the TGI worked out at 1.7 µM in the assay with ACHN renal; 1.01 µM with HCT-15 colon; 2.48 µM in the assay with HOP-62 NSCLC; 2.19 µM in the assay with IGROV1 ovarian; 1.97 µM in the assay with NCI-H226 lung; 2.85 µM with NCI-H23 lung. The TGI in the assay with SF-268 CNS was determined as 3.02 µM; in the assay on UACC-62 melanoma, 2.59 µM.
On to `CCOP(=O)(Nc1ccc(-c2ccccc2)cc1)OCC`, for which the TGI in the assay with ACHN renal, in the assay on HCT-15 colon, in the assay on HOP-62 NSCLC, with HT29 colon, in the assay on IGROV1 ovarian and in the assay on NCI-H23 lung was over 100 µM throughout. In addition, the TGI with SF-268 CNS and with UACC-62 melanoma was over 100 µM throughout.
Regarding `O=C(O)CSc1cc(-c2ccccc2)nc2ccccc12`, the TGI in the assay with ACHN renal, in the assay on HCT-15 colon, with HOP-62 NSCLC, in the assay on HT29 colon, in the assay on IGROV1 ovarian and in the assay with NCI-H23 lung was over 100 µM throughout. For the same compound, the TGI with SF-268 CNS, with SW-620 colon and in the assay on UACC-62 melanoma was over 100 µM each time.
`O=C(O)CSCC(=O)Nc1ccc2cccc3c2c1CC3`: the TGI with ACHN renal, with HCT-15 colon, with HOP-62 NSCLC, in the assay on HT29 colon, in the assay on IGROV1 ovarian and in the assay on NCI-H23 lung was over 100 µM each time. The TGI with SF-268 CNS, in the assay on SW-620 colon and in the assay with UACC-62 melanoma was over 100 µM each time.
